Experimental data: patent US20260240914A1, “MENIN-MLL INHIBITORS AND COMPOSITIONS FOR PROLIFERATION OF BETA CELLS” (BIOMEA FUSION, INC., priority 2022, published 2026)

Columns and labels:
Type in all cases: cell-based
human islet microtissues = experiment: Total ATP content of human islet microtissues (CellTiter-Glo cell viability); details: 0.075 μM, 0.15 μM and 0.3 μM; 1, 2 or 3 weeks; through the duration of the assay
Experimental: (§1) The ability of menin-MLL inhibitors to induce beta cell proliferation is tested on human islet microtissue preparations (InSphero). Briefly, human islet microtissues are produced by enzymatic dissociation of the primary islet cells followed by controlled scaffold-free hanging-drop-based self-reaggregation of the islet cells (Misun et al., 2020, Adv. Biosyst. 2020, 4, 1900291). The process helps eliminate contaminating exocrine cells, while enabling homogenous and native-like distribution of endocrine cells within each islet microtissue. Islet microtissues generated by this process are uniform in size, and cellular composition, long lived, functionally robust and display long-term and stable functionality and viability during in vitro culture (Misun et al., 2020, Adv. Biosyst. 2020, 4, 1900291). […]
(§2) At the described termination point (1, 2, or 3 weeks), culture media supernatants were collected for measurement of chronic insulin secretion (insulin secreted since last medium exchange, i.e. 72 hours in this project). […] Tissues were next analyzed for total ATP content using the Promega CellTiter-Glo® Luminescent Cell Viability Assay. […] Supernatants and lysates were appropriately diluted and total and secreted insulin were quantified using ALPCO Stellux® Chemi Human Insulin ELISA.

human islet beta cells [1] = experiment: Glucose stimulated insulin secretion assay in human islet microtissues
Experimental: as §1, §2

human islet beta cells [2] = experiment: Total insulin content of human islet microtissues (insulin ELISA of lysates)
Experimental: as §1, §2

[3] = test system: human pancreatic islet beta cells; experiment: Beta cell proliferation in human islet microtissues (EdU / NKX6.1 3D staining and microscopy); details: for proliferating beta cell fraction (EdU+NKX6.1+/NKX6.1 %): 0.3 μM
Experimental: The ability of menin-MLL inhibitors to induce beta cell proliferation is tested on human islet microtissue preparations (InSphero). Briefly, human islet microtissues are produced by enzymatic dissociation of the primary islet cells followed by controlled scaffold-free hanging-drop-based self-reaggregation of the islet cells (Misun et al., 2020, Adv. Biosyst. 2020, 4, 1900291). The process helps eliminate contaminating exocrine cells, while enabling homogenous and native-like distribution of endocrine cells within each islet microtissue. Islet microtissues generated by this process are uniform in size, and cellular composition, long lived, functionally robust and display long-term and stable functionality and viability during in vitro culture (Misun et al., 2020, Adv. Biosyst. 2020, 4, 1900291). The methodology confirms primary human beta cells can be cultured long term (few weeks) under ex-vivo culture conditions to enable beta cell expansion ex-vivo.
Islet microtissues (MTs) were aggregated for 5 days and then released into ultra-low attachment plates. Half of the plates were maintained in standard culture medium (5.5 mM glucose), and half were cultured in high-glucose culture medium (GTX, 8 mM glucose) starting at Day 9, for the duration of the whole experiment. Starting on Day 12 (after 3 days of GTX pre-treatment for the relevant plates), dosing with compound 10, a representative irreversible menin-MLL inhibitor, was initiated, using a Tecan D300e Digital Dispenser for harmine and Biomea compound. DMSO was normalized by volume across all wells. Media was exchanged and compounds redosed every 2-3 days throughout the experiment. EdU was included during the final 4 days of each treatment period. Compound dosing was randomized; to avoid compound cross-contamination between wells, all media exchanges were performed using 96-well deep-well plates with pipette tip exchange.
Proliferating cells were labeled in 3D by incubating MTs with […] EdU during the final 4 days of compound treatment. At the described termination point (1, 2, or 3 weeks), MTs were washed twice with PBS, fixed for 15 min in 4% PFA, washed twice more with PBS and stored in PBS with 0.05% sodium azide until staining. Islet MTs were then permeabilized with permeabilization buffer (Triton® X-100, 0.5% in PBS w/o Mg2+Ca2+) and washed twice with PBS. EdU was labeled using the Click-it reaction (Click-iT™ EdU Alexa Fluor™ 647 HCS Assay, Thermo Fisher). MTs were washed twice with PBS and blocked with 10% FCS solution to prevent nonspecific antibody binding, before overnight incubation with rabbit mAB NKX6.1 [EPR20405] (Abcam, ab221549) at a 1:200 dilution in antibody dilution buffer (10% FCS, 0.2% Triton® X-100 in PBS w/o Mg2+Ca2+) as a […]. Goat anti-rabbit secondary antibody AF568 (ThermoFisher A11036) was used as secondary antibody at a 1:200 dilution in antibody dilution buffer, along with DAPI. Finally, islet MTs were transferred into Akura 384-well plates and cleared with ScaleS4 for 3D imaging. Images were acquired using the Yokogawa CQI Benchtop High-Content Analysis System, taking fluorescent images in […] z-steps in blue, red and far-red channels. DAPI-, NKX6.1- and EdU-positive nuclei and signal colocalization were quantified in 3D using a customized CellPathfinder pipeline. Proliferating cells and proliferating-cells were manually counted to validate automated results. Statistical significance was determined with One-way ANOVA and Dunnett's multiple comparisons test, rejecting the null hypothesis at p=0.05. Outliers were detected with ROUT's outlier test (Q=5%). No outlier test was applied to the proliferating cells.

[4] = standard glucose culture conditions (5.5 mM glucose)
[5] = compound 10 treatment, dose-dependent

C=CC(=O)N[C@@H]1CCCN(Cc2ccnc(C(=O)Nc3ccc(-c4cc5c(N6CCOCC6)ncnc5[nH]4)cc3)c2)C1 (racemic) [Compound 10]
viability as revealed by ATP content readout (human islet microtissues): good viability | glucose stimulated insulin secretion (human islet beta cells [1]; high glucose conditions (8 mM glucose), compared to vehicle treatment): improved | glucose stimulated insulin secretion (improvement) (human islet beta cells [1]; [4]): not observed | beta cell insulin content (human islet beta cells [2]; high glucose conditions (8 mM glucose), treated for 2 and 3 weeks, vs vehicle control (DMSO)): dose dependent increase | total insulin content (human islet beta cells [2]; [4]): largely unchanged | proliferation at all three concentrations ([3]; 0.075 μM, 0.15 μM, and 0.3 μM, 7, 14, 21 days, reached highest by day 21): increase in proliferation | proliferating beta cell fraction (EdU+NKX6.1+/NKX6.1 %) ([3]; Day 14 of culture, compared to DMSO control (FIG. 1, graphs B)): substantially | proliferating beta cell fraction (EdU+NKX6.1+/NKX6.1 %) ([3]; Day 21 of culture, compared to DMSO control (FIG. 2, graphs B)): substantially | Total cell proliferation ([3]; compared to DMSO control): not increased | Total β-cell count [3, 5]: significantly increased | β-cell fraction (NKX6.1+/DAPI+ %) [3, 5]: significantly increased | β-cell proliferation relative to solvent control ([3]; high glucose medium (8 mM glucose), 0.075 μM, 0.15 μM, and 0.3 μM, more pronounced than in standard medium): dose dependent increase
